Target: T1, human LPAAT-β (Homo sapiens, UniProt O15120)
T1 construct: the full-length human LPAAT-β cDNA was amplified by PCR; poly-histidine tag (N); made in house; host or cells: Sf9 insect cells (baculovirus, pFastBac HTc); the membrane fraction was used as the enzyme
T1 sequence (O15120 24-278): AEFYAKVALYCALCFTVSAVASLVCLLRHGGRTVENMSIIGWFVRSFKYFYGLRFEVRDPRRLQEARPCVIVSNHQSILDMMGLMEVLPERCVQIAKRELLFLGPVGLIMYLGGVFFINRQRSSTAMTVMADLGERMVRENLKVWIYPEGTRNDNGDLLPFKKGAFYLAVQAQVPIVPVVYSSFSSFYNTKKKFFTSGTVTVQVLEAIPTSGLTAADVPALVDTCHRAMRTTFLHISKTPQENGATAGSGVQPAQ
Assay: LPAAT-β cell-free assay
Format: biochemical
Conditions: Sf9 cell membrane overexpressing recombinant LPAAT-β
Text: For the construction of Baculovirus expression vectors, the full-length human LPAAT-β cDNA was amplified by PCR from the DNA template pCE9.LPAAT-β (West et al., DNA Cell Bid. 16.691-701 (1997)) using the primers 5′-[…] […] […] […]-3′ (olpb1F; SEQ ID NO:1) and 5′-[…] […] […]-3′ (olpb1R; SEQ ID NO:2). The ˜870 bp fragment generated was reamplified by PCR using the primers 5′ […] […] […] […] ATC-3′ (olpb2F; SEQ ID NO:3) and 5′-[…] […] […]-3′ (olpb1R; SEQ ID NO:2). The ˜890 bp fragment generated was then cleaved with Sal I and Xba I for insertion into pFastBac™ HTc vector (Life Technologies, Gaithersberg, M.d.) between the Sal I and Xba I sites for the generation of the plasmid pFB.LPAAT-β. This plasmid was then transformed into E. coli DH10Bac™ (Life Technologies, Gaithersberg, M.d.) for the generation of recombinant Bacmid DNA for transfection in HighFive (Invitrogen, San Diego, Calif.) or SF9 insect cells for the production of recombinant Baculovirus stocks using the protocol described in the Bac-to-Bac® Baculovirus Expression System (Life Technologies, Gaithersberg, M.d.), a eukaryotic expression system for generating recombinant baculovirus through site-specific transposition in E. coli. Viral stocks harvested from the transfected cells can then be used to infect fresh insect cells for the subsequence expression of LPAAT-β fusion protein with a poly-histidine tag and a myc-epitope near its N-terminus. The membrane fraction from these Sf9 cells would be the source of LPAAT enzyme.
For the preparation of membranes from Sf9 Cells, all steps are performed on ice or at 4° C. Sf9 cell pellets (˜10^8 cells) were thawed and resuspended in 1-2 ml of buffer A (20 mM Hepes, pH 7.5, 1 mM DTT, 1 mM EDTA, 20% w/v glycerol, 1 mM Benzamidine, 1 μg/ml soybean trypsin inhibitor (SBTI), 1 μug/ml pepstatin A) w/o DTT but with 1 mM Pefabloc. The cells were lysed by sonication using a Branson Sonifier at output=2, duty cycle=2, 10 pulses each at 10 s. with the tip of small sonicator probe submerged but not touching the walls. DTT was then added to 1 mM from a 1 M stock. The samples were centrifuged at 1500 rpm for 5 min. The low speed supernatant was saved and centrifuged (TLA 100.3 rotor, polycarbonate tubes, 2 ml/tube or 1.5 ml/tube minimum) at 100000×g for 1 hr. The high speed pellet was resuspend in Buffer A with a probe sonicator (10 pulses @ output #2 and duty cycle 20%) as a source of LPAAT enzyme.
LPAAT-β catalyzes the transfer of an acyl group from a donor such as acyl-CoA to LPA. The transfer of the acyl group from acyl-CoA to LPA leads to the release of free CoA, which can be reacted with the thiol reagent, 5,5′-dithiobis(2-nitrobenzoic acid) (DTNB). The reaction between DTNB and the free sulfhydryl group from CoA generates a yellow-colored product, 3-carboxylato-4-nitrothiophenolate (CNP), that absorbs at 413 nm. LPAAT-β derived from Sf9 cell membrane overexpressing LPAAT-β were resuspended in HEPES saline buffer (20 mM HEPES pH 7.5, 150 mM NaCl), 1 mg/ml BSA and 72 μl aliquots were distributed into 96-well microtiter plates. 8 μl of compound of interest at 200 μM dissolved in 100% DMSO was added into each well. […] of 1 mM 18:1-CoA and 1 mM sn-1-18:1 lysoPA was then added to each well to initiate the reaction and allowed to run at room temperature for 25 min. 100 μl of 1 mM DTNB in 100% ethanol was then added to each well to quench the reaction and for color development. The absorbance at 405 nm, measured using a spectrophotometer plate reader, is proportional to the activity of LPAAT-2 in the sample. This colorimetric assay was used for the high throughput screening of LPAAT inhibitors.
The radiometric assay was carried out in Sf9 cell membrane overexpressing LPAAT-β resuspended in HEPES-saline buffer, pH 7.5, 1 mg/ml BSA, 1 mM EDTA and 200 μM [^14C]18:1-CoA and 200 μM sn-1-18:1 lysoPA.

Nc1nc(Nc2ccc3cn[nH]c3c2)cc(-c2cc(Cl)ccc2Cl)n1 [Example 19, 6-(2,5-Dichloro-phenyl)-N*4*-(1H-indazol-6-yl)-pyrimidine-2,4-diamine] and Cc1ccc(Cl)cc1-c1cc(Nc2ccc3cn[nH]c3c2)nc(N)n1 [Example 31, 6-(5-Chloro-2-methyl-phenyl)-N*4*-(1H-indazol-6-yl)-pyrimidine-2,4-diamine] are within 1.5-fold of each other in IC50: 27 nM for the first, 32 nM for the second.

Nc1nc(Nc2ccc(Cl)cc2)cc(-c2cc(Cl)ccc2Cl)n1 [Example 20, N*4*-(4-Chloro-phenyl)-6-(2,5-dichloro-phenyl)-pyrimidine-2,4-diamine] and Cc1ccc(Cl)cc1-c1cc(Nc2ccc(Cl)cc2)nc(N)n1 [Example 27, 6-(5-Chloro-2-methyl-phenyl)-N*4*-(4-chloro-phenyl)-pyrimidine-2,4-diamine] are within 1.5-fold of each other in IC50: 20 nM for the first, 28 nM for the second.

First: COC(=O)c1ccc(Nc2cc(-c3cc(Cl)ccc3Cl)nc(N)n2)cc1 [Example 21, 4-[2-Amino-6-(2,5-dichloro-phenyl)-pyrimidin-4-yl-amino]-benzoic acid methyl ester]
Second: Nc1nc(Nc2ccc(CO)cc2)cc(-c2cc(Cl)ccc2Cl)n1 [Example 22, {4-[2-Amino-6-(2,5-dichloro-phenyl)-pyrimidin-4-yl-amino]-phenyl}-methanol]
The IC50 of the first is 5.5-fold higher: 330 nM for the first, 60 nM for the second.

Going from Nc1nc(Nc2ccc3c(c2)OCO3)cc(-c2cc(Cl)ccc2Cl)n1 [Example 23, N*4*-Benzo[1,3]dioxol-5-yl-6-(2,5-dichloro-phenyl)-pyrimidine-2,4-diamine] to N#Cc1ccc(Nc2cc(-c3cc(Cl)ccc3Cl)nc(N)n2)cc1 [Example 24, 4-[2-Amino-6-(2,5-dichloro-phenyl)-pyrimidin-4-ylamino]-benzonitrile], the IC50 falls from 95 nM to 29 nM (3.3-fold).

Nc1nc(Nc2ccc([N+](=O)[O-])cc2)cc(-c2cc(Cl)ccc2Cl)n1 [Example 25, 6-(2,5-Dichloro-phenyl)-N*4*-(4-nitro-phenyl)-pyrimidine-2,4-diamine] and CCOc1ccc(Cl)cc1-c1cc(Nc2ccc([N+](=O)[O-])cc2)nc(N)n1 [Example 46, 6-(5-Chloro-2-ethoxy-phenyl)-N*4*-(4-nitro-phenyl)-pyrimidine-2,4-diamine] are within 1.5-fold of each other in IC50: 9 nM for the first, 10 nM for the second.

Going from Cc1ccc(Nc2cc(-c3cc(Cl)ccc3C)nc(N)n2)cc1 [Example 26, 6-(5-Chloro-2-methyl-phenyl)-N*4*-p-tolyl-pyrimidine-2,4-diamine] to Cc1ccc(Cl)cc1-c1cc(Nc2ccc(Br)cc2)nc(N)n1 [Example 30, N*4*-(4-Bromo-phenyl)-6-(5-chloro-2-methyl-phenyl)-pyrimidine-2,4-diamine], the IC50 falls from 94 nM to 34 nM (2.8-fold).

Compared with COc1ccc(Nc2cc(-c3cc(Cl)ccc3C)nc(N)n2)cc1 [Example 28, 6-(5-Chloro-2-methyl-phenyl)-N*4*-(4-methoxy-phenyl)-pyrimidine-2,4-diamine], Cc1ccc(Cl)cc1-c1cc(Nc2ccc(C#N)cc2)nc(N)n1 [Example 32, 4-[2-Amino-6-(5-chloro-2-methyl-phenyl)-pyrimidin4-ylamino]-benzonitrile] is 5.3-fold lower in IC50: 200 nM for the first, 38 nM for the second.

Cc1ccc(Cl)cc1-c1cc(Nc2ccc(C(F)(F)F)cc2)nc(N)n1 [Example 29, 6-(5-Chloro-2-methyl-phenyl)-N*4*-(4-trifluoromethyl-phenyl)-pyrimidine-2,4-diamine] and Cc1ccc(Cl)cc1-c1cc(Nc2ccc(CO)cc2)nc(N)n1 [Example 33, {4-[2-Amino-6-(5-chloro-2-methyl-phenyl)-pyrimidin4-ylamino]-phenyl}-methanol] are within 1.5-fold of each other in IC50: 134 nM for the first, 95 nM for the second.

First: COc1ccc(Cl)cc1-c1cc(N)nc(Nc2ccc(Cl)cc2)n1 [Example 34, 6-(5-Chloro-2-methoxy-phenyl)-N*2*-(4-chloro-phenyl)-pyrimidine-2,4-diamine]
Second: COc1ccc(Cl)cc1-c1cc(Nc2ccc(Cl)cc2)nc(C)n1 [Example 38, [6-(5-Chloro-2-methoxy-phenyl)-2-methyl-pyrimidin-4-yl]-(4-chloro-phenyl)-amine]
The IC50 of the first is 40-fold higher: 2000 nM for the first, 50 nM for the second. The second is the more potent here.

Going from COc1ccc(Cl)cc1-c1cc(N)nc(Nc2ccc3cn[nH]c3c2)n1 [Example 35, 6-(5-Chloro-2-methoxyphenyl)-N*2*-(1H-indazol-6yl)-pyrimidine-2,4-diamine] to COc1ccc(Cl)cc1-c1nc(N)cc(Nc2ccc3cn[nH]c3c2)n1 [Example 37, 2-(5-Chloro-2-methoxy-phenyl)-N-(1H-indazol-6-yl)-pyrimidine4,6-diamine], the IC50 rises from 800 nM to 2100 nM (2.6-fold).

Going from COc1ccc(Cl)cc1-c1nc(N)cc(Nc2ccc(Br)cc2)n1 [Example 36, N-(4-Bromo-phenyl)-2-(5-chloro-2-methoxy-phenyl)-pyrimidine4,6-diamine] to COc1ccc(Cl)cc1-c1cc(Nc2ccc(Br)cc2)nc(C)n1 [Example 39, [6-(5-Chloro-2-methoxy-phenyl)-2-methyl-pyrimidin-4-yl]-(4-bromo-phenyl)-amine], the IC50 falls from 8000 nM to 180 nM (44-fold). The second is the more potent here.

COc1ccc(Cl)cc1-c1cc(Nc2ccc3cn[nH]c3c2)nc(C)n1 [Example 40, [6-(5-Chloro-2-methoxy-phenyl)-2-methyl-pyrimidin4-yl]-(1H-indazol-6-yl)-amine] and Cc1nc(Nc2ccc3cn[nH]c3c2)cc(-c2cc(Cl)ccc2C)n1 [Example 43, [6-(5-Chloro-2-methyl-phenyl)-2-methyl-pyrimidin-4-yl]-(1H-indazol-6-yl)-amine] are within 1.5-fold of each other in IC50: 14 nM for the first, 17 nM for the second.

Going from Cc1nc(Nc2ccc(Br)cc2)cc(-c2cc(Cl)ccc2C)n1 [Example 41, [6-(5-Chloro-2-methyl-phenyl)-2-methyl-pyrimidin-4-yl]-(4-bromo-phenyl)-amine] to Cc1nc(Nc2ccc(Cl)cc2)cc(-c2cc(Cl)ccc2C)n1 [Example 42, [6-(5-Chloro-2-methyl-phenyl)-2-methyl-pyrimidin-4-yl]-(4-chloro-phenyl)-amine], the IC50 falls from 21 nM to 10 nM (2.1-fold).

Going from CCOc1ccc(Cl)cc1-c1cc(Nc2ccc(CO)cc2)nc(N)n1 [Example 44, {4-[2-Amino-6-(5-chloro-2-ethoxy-phenyl)-pyrimidin-4-ylamino]-phenyl}-methanol] to CCOc1ccc(Cl)cc1-c1cc(Nc2ccc(CCO)cc2)nc(N)n1 [Example 47, 2-{4-[2-Amino-6-(5-chloro-2-ethoxy-phenyl)-pyrimidin4-ylamino]-phenyl}-ethanol], the IC50 falls from 75 nM to 28 nM (2.7-fold).

COc1ccc(Cl)cc1-c1cc(Nc2ccc(C#N)cc2)nc(N)n1 [Example 45, 4-[2-Amino-6-(5-chloro-2-methoxy-phenyl)-pyrimidin-4-ylamino]-benzonitrile] and Nc1nc(Nc2ccc(CCO)cc2)cc(-c2cc(Cl)ccc2Cl)n1 [Example 48, 2-{4-[2-Amino-6-(2,5-dichloro-phenyl)-pyrimidin4-ylamino]-phenyl}-ethanol] are within 1.5-fold of each other in IC50: 33 nM for the first, 28 nM for the second.
